Where a name gives a salt, the structure may show the parent alone.
Tested on: spleen
Experiment: Transcriptional profiling on Affymetrix GeneChips, single dose, naïve mice: spleen
Assay type: in vivo, C57BL/6 mice
Settings: for Number of differentially expressed genes identified: Spleen: Naïve, Single Dose; for FC Pdia4 (protein disulfide isomerase associated 4): probe 1416497_PM_at; for FC Aox1 (aldehyde oxidase 1): probe 1419435_PM_at; for FC Osgin1 (oxidative stress induced growth inhibitor 1): probe 1424022_PM_at; for FC Kirrel (kin of IRRE like (Drosophila)): probe 1434797_PM_at; for FC 9130221J17Rik (RIKEN cDNA 9130221J17 gene): probe 1443159_PM_at; for Number of genes, DMF Only / MMF Only: Spleen
Description: Treated mice were sacrificed at 2, 7, or 12 hours. Tissues (liver, spleen, kidney, jejunum, cortex, hippocampus, striatum and whole blood) were collected and analyzed by transcriptional profiling on mouse Affymetrix GeneChips.
Tissues (liver, spleen, kidney, jejunum, cortex, hippocampus, striatum and whole blood) were collected and analyzed by transcriptional profiling on mouse Affymetrix GeneChips.
Animals were exposed to CO2 and whole blood collected via cardiac puncture. Two 100 μl aliquots of whole blood were collected in 1.5 mL microcentrifuge tubes and snap frozen in liquid nitrogen. Peripheral (liver, spleen, kidney and jejunum) and CNS brain (cerebellum, hippocampus, striatum and cortex) tissues were harvested and snap frozen in liquid nitrogen, with special care taken to collect tissues of similar size and from the same location. All samples were stored at −80° C. until RNA extraction was conducted.
For RNA preparation, frozen tissues were placed in 2 mL RNAse-free 96-well blocks with 1.5 mL QIAzol Lysis Reagent (QIAgen) and a 3.2 mm stainless steel bead (BioSpec Products, Bartlesville, Okla.). Tissues were disrupted for four cycles of 45 seconds in a Mini-Beadbeater (Biospec Products). RNA was extracted in chloroform and the aqueous phase was mixed with an equal volume of 70% ethanol. Extracted RNA was applied to RNeasy 96 plates and purified by the spin method according to the manufacturer's protocol (RNeasy 96 Universal Tissue Protocol, QIAgen, Hilden Germany).
Automated sample amplifications and biotin labelings were carried out using the NuGEN Ovation RNA Amplification system V2 (Cat #3100), Ovation WB reagent (Cat #1300) and Encore Biotin module (Cat #4200) (NuGEN Technologies, Inc, San Carlos, Calif.) according to manufacturer's recommendations using an Arrayplex automated liquid handler (Beckman Coulter, Indianapolis, Ind.). Two micrograms of biotin labeled sscDNA probe were hybridized to Affymetrix GeneChip Affymetrix HT_MG-430_PM plate arrays with modified conditions as described in Allaire et al. Washing and staining of the hybridized arrays were completed as described in the GeneChip Expression analysis technical manual for HT plate arrays using the Genechip® Array Station (Affymetrix, Santa Clara, Calif.) with modifications as described in Allaire et al. The processed GeneChip® plate arrays were scanned using GeneTitan scanner (Affymetrix, Santa Clara, Calif.).
Affymetrix scans were subject to quality control (QC) measures. These tests included a visual inspection of the distribution of raw signal intensities and an assessment of RNA degradation, relative log expression (RLE), and normalized unsealed standard error (NUSE). All sample scans that passed these QC metrics were included in the analysis.
All CEL files were subjected to GC-content-based Robust Multi-array Average (GCRMA) normalization (version 2.20.0) (Irizarry R A, et al. Nucleic Acids Res 2003; 31:e15; Li C, et al. Genome Biol 2001; 2:[…]0032). Expression levels were log (base 2) transformed.
All calculations and analyses were carried out using R (version 2.11.1) and Bioconductor computational tools (Gentleman R. Springer Science+Business Media 2005).

[1] = 100 mpk, vs Vehicle, 2 h after last dosing
[2] = 100 mpk, vs Vehicle, 7 h after last dosing
[3] = 100 mpk, vs Vehicle, 12 h after last dosing

COC(=O)/C=C/C(=O)OC [DMF, dimethyl fumarate]
Number of differentially expressed genes identified: Spleen (100 mpk DMF-vs-100 mpk MMF, 2 h after last dosing): 0
Number of differentially expressed genes identified: Spleen (100 mpk DMF-vs-100 mpk MMF, 7 h after last dosing): 0
Number of differentially expressed genes identified: Spleen (100 mpk DMF-vs-100 mpk MMF, 12 h after last dosing): 0
Number of differentially expressed genes identified: Spleen [1]: 13
Number of differentially expressed genes identified: Spleen [2]: 2
Number of differentially expressed genes identified: Spleen [3]: 0
genes in differential expression gene list (SPLEEN, 100DMF-vs-100MMF, 2 h): None
genes in differential expression gene list (SPLEEN, 100DMF-vs-100MMF, 7 h): None
genes in differential expression gene list (SPLEEN, 100DMF-vs-100MMF, 12 h): None
FC Pdia4 (protein disulfide isomerase associated 4) (SPLEEN, 100DMF-vs-Veh, 2 h): −1.60
FC Aox1 (aldehyde oxidase 1) (SPLEEN, 100DMF-vs-Veh, 2 h): 2.61
FC Srxn1 (sulfiredoxin 1 homolog (S. cerevisiae)) (SPLEEN, 100DMF-vs-Veh, 2 h, probe 1419942_PM_at): 2.16
FC Txnrd1 (thioredoxin reductase 1) (SPLEEN, 100DMF-vs-Veh, 2 h, probe 1421529_PM_a_at): 1.55
FC Osgin1 (oxidative stress induced growth inhibitor 1) (SPLEEN, 100DMF-vs-Veh, 2 h): 1.78
FC Gclc (glutamate-cysteine ligase, catalytic subunit) (SPLEEN, 100DMF-vs-Veh, 2 h, probe 1424296_PM_at): 1.76
FC Txnrd1 (thioredoxin reductase 1) (SPLEEN, 100DMF-vs-Veh, 2 h, probe 1424486_PM_a_at): 2.41
FC Txnrd1 (thioredoxin reductase 1) (SPLEEN, 100DMF-vs-Veh, 2 h, probe 1424487_PM_x_at): 1.73
FC Srxn1 (sulfiredoxin 1 homolog (S. cerevisiae)) (SPLEEN, 100DMF-vs-Veh, 2 h, probe 1426875_PM_s_at): 2.02
FC Kirrel (kin of IRRE like (Drosophila)) (SPLEEN, 100DMF-vs-Veh, 2 h): −1.54
FC 9130221J17Rik (RIKEN cDNA 9130221J17 gene) (SPLEEN, 100DMF-vs-Veh, 2 h): 1.52
FC Mafg (v-maf musculoaponeurotic fibrosarcoma oncogene family, protein G (avian)) (SPLEEN, 100DMF-vs-Veh, 2 h, probe 1448916_PM_at): 1.58
FC Srxn1 (sulfiredoxin 1 homolog (S. cerevisiae)) (SPLEEN, 100DMF-vs-Veh, 2 h, probe 1451680_PM_at): 1.53
FC Srxn1 (sulfiredoxin 1 homolog (S. cerevisiae)) (SPLEEN, 100DMF-vs-Veh, 7 h, probe 1419942_PM_at): 1.67
FC Srxn1 (sulfiredoxin 1 homolog (S. cerevisiae)) (SPLEEN, 100DMF-vs-Veh, 7 h, probe 1426875_PM_s_at): 1.50
Number of genes, DMF Only / MMF Only: 2
Aox1 (probe set 1419435_PM_at) differential expression (spleen, 2 hr): 2.61
Gclc (probe set 1424296_PM_at) differential expression (spleen, 2 hr): 1.76
Kirrel (probe set 1434797_PM_at) differential expression (spleen, 2 hr): −1.54
Mafg (probe set 1448916_PM_at) differential expression (spleen, 2 hr): 1.58
Osgin1 (probe set 1424022_PM_at) differential expression (spleen, 2 hr): 1.78
Pdia4 (probe set 1416497_PM_at) differential expression (spleen, 2 hr): −1.60
Srxn1 (probe set 1419942_PM_at) differential expression (spleen, 2 hr): 2.16
Txnrd1 (probe set 1424486_PM_a_at) differential expression (spleen, 2 hr): 2.41
Srxn1 (probe set 1419942_PM_at) differential expression (spleen, 7 hr): 1.67
genes in differential expression gene list (spleen, 100DMF-vs-Veh, 12 h): None

COC(=O)/C=C/C(=O)O [MMF, monomethyl fumarate]
Number of differentially expressed genes identified: Spleen [1]: 12
Number of differentially expressed genes identified: Spleen [2]: 2
Number of differentially expressed genes identified: Spleen [3]: 0
FC Pdia4 (protein disulfide isomerase associated 4) (SPLEEN, 100MMF-vs-Veh, 2 h): −1.59
FC Aox1 (aldehyde oxidase 1) (SPLEEN, 100MMF-vs-Veh, 2 h): 2.35
FC Srxn1 (sulfiredoxin 1 homolog (S. cerevisiae)) (SPLEEN, 100MMF-vs-Veh, 2 h, probe 1419942_PM_at): 2.02
FC Txnrd1 (thioredoxin reductase 1) (SPLEEN, 100MMF-vs-Veh, 2 h, probe 1421529_PM_a_at): 1.53
FC Osgin1 (oxidative stress induced growth inhibitor 1) (SPLEEN, 100MMF-vs-Veh, 2 h): 1.83
FC Txnrd1 (thioredoxin reductase 1) (SPLEEN, 100MMF-vs-Veh, 2 h, probe 1424486_PM_a_at): 2.14
FC Srxn1 (sulfiredoxin 1 homolog (S. cerevisiae)) (SPLEEN, 100MMF-vs-Veh, 2 h, probe 1426875_PM_s_at): 1.92
FC 6330406I15Rik (RIKEN cDNA 6330406I15 gene) (SPLEEN, 100MMF-vs-Veh, 2 h, probe 1426937_PM_at): −1.58
FC Kirrel (kin of IRRE like (Drosophila)) (SPLEEN, 100MMF-vs-Veh, 2 h): −1.65
FC Armc8 (armadillo repeat containing 8) (SPLEEN, 100MMF-vs-Veh, 2 h, probe 1434951_PM_at): −1.54
FC 9130221J17Rik (RIKEN cDNA 9130221J17 gene) (SPLEEN, 100MMF-vs-Veh, 2 h): 1.55
FC probe 1446490_PM_at (no gene named) (SPLEEN, 100MMF-vs-Veh, 2 h, probe 1446490_PM_at): −1.76
FC Srxn1 (sulfiredoxin 1 homolog (S. cerevisiae)) (SPLEEN, 100MMF-vs-Veh, 7 h, probe 1419942_PM_at): 1.87
FC Srxn1 (sulfiredoxin 1 homolog (S. cerevisiae)) (SPLEEN, 100MMF-vs-Veh, 7 h, probe 1426875_PM_s_at): 1.69
Number of genes, DMF Only / MMF Only: 3
Aox1 (probe set 1419435_PM_at) differential expression (spleen, 2 hr): 2.35
Armc8 (probe set 1434951_PM_at) differential expression (spleen, 2 hr): −1.54
Kirrel (probe set 1434797_PM_at) differential expression (spleen, 2 hr): −1.65
Osgin1 (probe set 1424022_PM_at) differential expression (spleen, 2 hr): 1.83
Paip1 (probe set 1425521_PM_at) differential expression (spleen, 2 hr): −1.56
Pdia4 (probe set 1416497_PM_at) differential expression (spleen, 2 hr): −1.59
Rod1 (probe set 1424084_PM_at) differential expression (spleen, 2 hr): −1.54
Srxn1 (probe set 1419942_PM_at) differential expression (spleen, 2 hr): 2.02
Txnrd1 (probe set 1424486_PM_a_at) differential expression (spleen, 2 hr): 2.14
Srxn1 (probe set 1419942_PM_at) differential expression (spleen, 7 hr): 1.87
Srxn1 mRNA fold change vs vehicle (spleen, 2 hr after single 100 mg/kg oral dose): 1.87
